Tests used:
Assay in all cases: pIC50, kinobeads binding competition
UniProt Q16513 = target: UniProt Q16513
In short: (§1)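 Fold changes relative to vehicle, from biological duplicates, were fitted with logistic dose-response models in the R drc package to give pIC50. These fold changes came from TMT10 LC-MS/MS quantification of digested Kinobeads-bound proteins. Compound was applied at nine concentrations (top 30 μM) either to live Jurkat cells in 1:4 steps for 60 min at 37 °C before lysis, or to Jurkat lysate or a 1:1:1:1 HEK293/K-562/HepG2/placenta lysate mix in 1:5 steps for 60 min at 4 °C.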

ABL2 = ABL2 (UniProt P42684)
In short: as §1

UniProt Q15418 = target: UniProt Q15418
In short: as §1

LYN = LYN (UniProt P07948)
In short: as §1

UniProt Q9Y2I7 = target: UniProt Q9Y2I7
In short: as §1

UniProt P45983 = target: UniProt P45983
In short: as §1

UniProt P07947 = target: UniProt P07947
In short: as §1

DAPK3 = DAPK3 (UniProt O43293)
In short: as §1

MYLK = MYLK (UniProt Q15746); conditions: cell material: Lysate mix
In short: as §1

MAP3K4 = MAP3K4 (UniProt Q9Y6R4)
In short: as §1

UniProt P51812 = target: UniProt P51812
In short: as §1

PRKD3 = target: T1, PRKD3 (UniProt O94806)
T1 sequence (whole entry): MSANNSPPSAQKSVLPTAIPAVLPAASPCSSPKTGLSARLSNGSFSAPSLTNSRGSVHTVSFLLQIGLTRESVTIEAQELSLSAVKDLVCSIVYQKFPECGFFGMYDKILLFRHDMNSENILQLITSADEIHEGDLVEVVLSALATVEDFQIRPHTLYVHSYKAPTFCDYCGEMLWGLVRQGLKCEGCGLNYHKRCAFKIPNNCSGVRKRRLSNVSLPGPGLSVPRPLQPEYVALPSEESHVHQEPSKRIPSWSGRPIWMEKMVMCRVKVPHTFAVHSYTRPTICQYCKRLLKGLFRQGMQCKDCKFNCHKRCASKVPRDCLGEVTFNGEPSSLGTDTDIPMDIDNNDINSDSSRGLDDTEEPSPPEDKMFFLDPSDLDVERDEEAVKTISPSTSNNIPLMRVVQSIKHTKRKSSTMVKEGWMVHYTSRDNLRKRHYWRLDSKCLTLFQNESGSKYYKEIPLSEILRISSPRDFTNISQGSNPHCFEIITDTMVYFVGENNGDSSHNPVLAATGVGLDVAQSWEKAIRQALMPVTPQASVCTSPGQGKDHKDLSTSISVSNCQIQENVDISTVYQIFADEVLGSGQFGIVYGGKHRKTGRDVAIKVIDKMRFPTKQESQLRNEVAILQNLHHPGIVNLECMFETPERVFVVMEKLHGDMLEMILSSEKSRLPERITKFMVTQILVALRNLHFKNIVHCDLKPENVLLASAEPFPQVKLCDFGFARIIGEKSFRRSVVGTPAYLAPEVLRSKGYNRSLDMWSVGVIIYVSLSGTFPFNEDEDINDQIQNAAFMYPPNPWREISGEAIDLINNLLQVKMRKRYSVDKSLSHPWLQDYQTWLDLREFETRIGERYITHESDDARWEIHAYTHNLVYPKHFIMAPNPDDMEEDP
In short: as §1

UniProt Q9BUB5 = target: UniProt Q9BUB5
In short: as §1

UniProt Q9NYV4 = target: UniProt Q9NYV4
In short: as §1

SLK = SLK (UniProt Q9H2G2)
In short: as §1

UniProt P17252 = target: UniProt P17252
In short: as §1

MELK = MELK (UniProt Q14680)
In short: as §1

PRKCQ = PRKCQ (UniProt Q04759)
In short: as §1

UniProt Q07912 = target: UniProt Q07912
In short: as §1

DDR2 = target: T2, DDR2 (UniProt Q16832); conditions: cell material: Lysate mix
T2 sequence (whole entry): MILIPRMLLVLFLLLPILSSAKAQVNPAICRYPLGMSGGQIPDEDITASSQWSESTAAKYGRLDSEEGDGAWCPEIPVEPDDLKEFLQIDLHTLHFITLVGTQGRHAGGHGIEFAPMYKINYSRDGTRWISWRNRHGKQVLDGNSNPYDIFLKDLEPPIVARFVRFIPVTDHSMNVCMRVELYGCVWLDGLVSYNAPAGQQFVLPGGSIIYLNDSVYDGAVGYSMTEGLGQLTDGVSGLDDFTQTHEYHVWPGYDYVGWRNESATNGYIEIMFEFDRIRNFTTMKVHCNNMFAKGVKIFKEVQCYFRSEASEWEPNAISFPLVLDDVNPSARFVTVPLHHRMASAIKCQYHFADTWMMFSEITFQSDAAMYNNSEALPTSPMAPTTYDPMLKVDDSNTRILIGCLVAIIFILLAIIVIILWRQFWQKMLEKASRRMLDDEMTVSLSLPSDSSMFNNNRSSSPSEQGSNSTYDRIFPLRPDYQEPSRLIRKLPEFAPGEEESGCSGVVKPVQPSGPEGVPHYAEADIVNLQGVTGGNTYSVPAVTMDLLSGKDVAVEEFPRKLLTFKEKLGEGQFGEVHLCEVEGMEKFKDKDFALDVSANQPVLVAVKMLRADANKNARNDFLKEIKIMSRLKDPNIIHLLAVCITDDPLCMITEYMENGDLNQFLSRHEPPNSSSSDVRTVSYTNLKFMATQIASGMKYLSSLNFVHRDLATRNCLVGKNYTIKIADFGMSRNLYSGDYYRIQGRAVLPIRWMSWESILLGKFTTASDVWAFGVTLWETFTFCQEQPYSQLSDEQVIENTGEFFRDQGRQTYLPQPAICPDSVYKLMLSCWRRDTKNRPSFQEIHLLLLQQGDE
In short: as §1

Sequence of UniProt Q9Y2I7 (Q9Y2I7 whole entry): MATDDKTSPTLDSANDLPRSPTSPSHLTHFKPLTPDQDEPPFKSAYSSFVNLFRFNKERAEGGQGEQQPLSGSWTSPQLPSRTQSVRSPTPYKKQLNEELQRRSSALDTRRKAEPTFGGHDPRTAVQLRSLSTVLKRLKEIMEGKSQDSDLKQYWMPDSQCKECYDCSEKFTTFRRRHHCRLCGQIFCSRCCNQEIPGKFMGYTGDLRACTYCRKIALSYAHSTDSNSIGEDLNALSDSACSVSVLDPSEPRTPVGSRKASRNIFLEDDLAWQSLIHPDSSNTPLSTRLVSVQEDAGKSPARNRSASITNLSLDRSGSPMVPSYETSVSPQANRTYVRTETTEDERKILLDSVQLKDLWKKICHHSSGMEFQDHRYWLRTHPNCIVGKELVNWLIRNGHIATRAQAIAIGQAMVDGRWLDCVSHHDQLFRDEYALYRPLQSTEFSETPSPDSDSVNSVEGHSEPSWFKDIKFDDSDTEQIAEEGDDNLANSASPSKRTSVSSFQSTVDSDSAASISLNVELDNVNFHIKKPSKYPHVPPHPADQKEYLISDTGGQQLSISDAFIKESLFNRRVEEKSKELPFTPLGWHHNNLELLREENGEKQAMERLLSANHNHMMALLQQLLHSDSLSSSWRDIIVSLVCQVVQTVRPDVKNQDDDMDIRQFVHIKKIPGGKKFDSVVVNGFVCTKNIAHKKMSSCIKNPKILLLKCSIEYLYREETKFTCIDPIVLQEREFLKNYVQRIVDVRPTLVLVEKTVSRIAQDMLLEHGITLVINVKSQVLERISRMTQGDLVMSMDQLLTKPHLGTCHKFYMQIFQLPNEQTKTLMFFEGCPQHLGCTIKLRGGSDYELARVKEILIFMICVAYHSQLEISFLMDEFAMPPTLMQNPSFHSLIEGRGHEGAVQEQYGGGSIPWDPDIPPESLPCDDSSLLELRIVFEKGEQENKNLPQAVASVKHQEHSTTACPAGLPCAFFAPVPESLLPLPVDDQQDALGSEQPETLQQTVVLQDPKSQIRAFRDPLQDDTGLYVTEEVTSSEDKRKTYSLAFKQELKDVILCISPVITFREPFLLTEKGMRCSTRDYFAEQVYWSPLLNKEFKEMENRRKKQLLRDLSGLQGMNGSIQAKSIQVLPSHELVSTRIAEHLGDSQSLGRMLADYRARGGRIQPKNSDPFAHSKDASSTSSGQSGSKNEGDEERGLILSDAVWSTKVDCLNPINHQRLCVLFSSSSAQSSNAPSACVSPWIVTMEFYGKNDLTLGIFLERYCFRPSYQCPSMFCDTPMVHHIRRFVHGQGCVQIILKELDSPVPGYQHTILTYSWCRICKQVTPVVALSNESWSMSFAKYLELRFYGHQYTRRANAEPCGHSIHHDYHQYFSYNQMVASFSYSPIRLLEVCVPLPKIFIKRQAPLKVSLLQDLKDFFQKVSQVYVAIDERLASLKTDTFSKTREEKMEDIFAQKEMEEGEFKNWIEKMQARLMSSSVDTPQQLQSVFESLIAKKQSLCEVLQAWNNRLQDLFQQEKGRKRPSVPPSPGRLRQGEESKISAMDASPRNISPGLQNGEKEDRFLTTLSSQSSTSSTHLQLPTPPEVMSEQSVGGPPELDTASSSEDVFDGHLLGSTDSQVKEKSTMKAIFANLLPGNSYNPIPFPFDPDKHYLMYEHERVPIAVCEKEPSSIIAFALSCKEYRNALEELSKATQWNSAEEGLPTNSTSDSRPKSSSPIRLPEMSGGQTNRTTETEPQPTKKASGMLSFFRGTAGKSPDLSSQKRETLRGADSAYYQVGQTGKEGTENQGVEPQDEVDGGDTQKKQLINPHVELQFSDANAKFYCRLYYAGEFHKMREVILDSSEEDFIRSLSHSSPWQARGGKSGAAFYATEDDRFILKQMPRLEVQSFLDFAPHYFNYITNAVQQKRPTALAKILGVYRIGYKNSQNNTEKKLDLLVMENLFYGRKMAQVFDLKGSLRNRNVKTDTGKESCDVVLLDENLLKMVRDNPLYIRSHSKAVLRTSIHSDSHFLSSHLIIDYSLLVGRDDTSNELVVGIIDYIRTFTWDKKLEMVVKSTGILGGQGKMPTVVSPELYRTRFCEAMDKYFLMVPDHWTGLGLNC
Sequence of MELK (Q14680 whole entry, looked up): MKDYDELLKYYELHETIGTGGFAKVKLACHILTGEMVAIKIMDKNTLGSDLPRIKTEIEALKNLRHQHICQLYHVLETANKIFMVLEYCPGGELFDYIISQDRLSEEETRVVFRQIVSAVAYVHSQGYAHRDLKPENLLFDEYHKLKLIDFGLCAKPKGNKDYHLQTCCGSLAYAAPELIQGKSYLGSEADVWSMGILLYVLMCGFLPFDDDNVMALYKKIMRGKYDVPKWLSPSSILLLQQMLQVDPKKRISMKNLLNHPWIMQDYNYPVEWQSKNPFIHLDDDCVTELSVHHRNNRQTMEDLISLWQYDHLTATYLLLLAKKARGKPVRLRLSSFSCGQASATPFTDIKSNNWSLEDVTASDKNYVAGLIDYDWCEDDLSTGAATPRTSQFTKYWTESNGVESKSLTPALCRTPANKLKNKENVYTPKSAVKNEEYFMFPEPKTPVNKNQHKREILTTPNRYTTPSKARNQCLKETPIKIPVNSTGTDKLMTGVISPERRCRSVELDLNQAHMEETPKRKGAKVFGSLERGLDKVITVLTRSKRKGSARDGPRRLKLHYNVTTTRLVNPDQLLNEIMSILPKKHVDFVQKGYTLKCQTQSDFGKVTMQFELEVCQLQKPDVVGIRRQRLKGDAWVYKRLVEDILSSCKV
Sequence of MYLK (Q15746 whole entry): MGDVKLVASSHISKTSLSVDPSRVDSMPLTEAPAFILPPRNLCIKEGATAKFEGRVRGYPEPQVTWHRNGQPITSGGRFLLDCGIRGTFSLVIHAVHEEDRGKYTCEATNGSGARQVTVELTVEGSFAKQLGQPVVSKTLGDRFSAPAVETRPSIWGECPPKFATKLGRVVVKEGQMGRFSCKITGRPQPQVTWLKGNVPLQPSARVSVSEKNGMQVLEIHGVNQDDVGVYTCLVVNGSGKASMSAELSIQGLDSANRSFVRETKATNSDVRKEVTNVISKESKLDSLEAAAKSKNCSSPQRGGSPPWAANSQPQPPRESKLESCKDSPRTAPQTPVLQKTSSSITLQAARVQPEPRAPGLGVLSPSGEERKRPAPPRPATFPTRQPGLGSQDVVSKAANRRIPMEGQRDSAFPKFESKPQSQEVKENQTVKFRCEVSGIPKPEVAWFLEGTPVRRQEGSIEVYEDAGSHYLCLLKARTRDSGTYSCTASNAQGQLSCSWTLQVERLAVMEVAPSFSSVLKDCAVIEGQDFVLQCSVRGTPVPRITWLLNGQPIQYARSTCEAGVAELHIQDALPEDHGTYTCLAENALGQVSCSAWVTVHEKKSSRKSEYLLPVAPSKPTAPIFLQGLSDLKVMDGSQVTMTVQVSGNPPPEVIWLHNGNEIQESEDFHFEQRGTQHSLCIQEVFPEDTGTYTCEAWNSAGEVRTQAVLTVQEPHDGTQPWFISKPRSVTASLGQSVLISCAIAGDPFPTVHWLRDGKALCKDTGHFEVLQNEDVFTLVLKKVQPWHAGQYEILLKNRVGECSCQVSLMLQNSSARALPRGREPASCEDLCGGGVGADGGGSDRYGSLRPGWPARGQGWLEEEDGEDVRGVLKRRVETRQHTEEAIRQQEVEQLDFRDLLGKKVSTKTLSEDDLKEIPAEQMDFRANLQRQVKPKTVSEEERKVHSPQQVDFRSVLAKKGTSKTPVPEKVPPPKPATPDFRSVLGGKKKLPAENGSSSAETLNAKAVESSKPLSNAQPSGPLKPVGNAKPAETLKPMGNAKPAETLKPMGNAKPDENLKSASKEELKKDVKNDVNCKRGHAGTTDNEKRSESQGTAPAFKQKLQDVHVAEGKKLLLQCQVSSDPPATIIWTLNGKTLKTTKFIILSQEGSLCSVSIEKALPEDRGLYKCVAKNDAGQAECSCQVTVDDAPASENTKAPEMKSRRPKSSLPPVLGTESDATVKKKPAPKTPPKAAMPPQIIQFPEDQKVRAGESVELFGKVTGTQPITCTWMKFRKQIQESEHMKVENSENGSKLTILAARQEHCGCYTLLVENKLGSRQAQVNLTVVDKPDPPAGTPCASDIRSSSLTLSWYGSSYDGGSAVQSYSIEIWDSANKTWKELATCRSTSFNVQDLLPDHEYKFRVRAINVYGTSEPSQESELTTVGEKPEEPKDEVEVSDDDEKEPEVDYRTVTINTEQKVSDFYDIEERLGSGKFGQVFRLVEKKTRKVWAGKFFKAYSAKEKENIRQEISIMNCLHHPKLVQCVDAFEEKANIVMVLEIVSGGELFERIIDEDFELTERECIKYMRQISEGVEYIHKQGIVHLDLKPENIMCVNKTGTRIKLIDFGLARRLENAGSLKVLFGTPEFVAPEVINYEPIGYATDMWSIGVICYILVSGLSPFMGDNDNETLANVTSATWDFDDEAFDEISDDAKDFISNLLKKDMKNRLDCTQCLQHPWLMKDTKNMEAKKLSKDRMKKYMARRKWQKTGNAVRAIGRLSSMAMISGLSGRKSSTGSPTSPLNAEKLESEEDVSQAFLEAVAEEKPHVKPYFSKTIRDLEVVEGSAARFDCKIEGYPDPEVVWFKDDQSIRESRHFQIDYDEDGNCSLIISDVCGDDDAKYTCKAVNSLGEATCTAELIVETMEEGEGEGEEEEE
Sequence of UniProt Q9BUB5 (Q9BUB5 whole entry, looked up): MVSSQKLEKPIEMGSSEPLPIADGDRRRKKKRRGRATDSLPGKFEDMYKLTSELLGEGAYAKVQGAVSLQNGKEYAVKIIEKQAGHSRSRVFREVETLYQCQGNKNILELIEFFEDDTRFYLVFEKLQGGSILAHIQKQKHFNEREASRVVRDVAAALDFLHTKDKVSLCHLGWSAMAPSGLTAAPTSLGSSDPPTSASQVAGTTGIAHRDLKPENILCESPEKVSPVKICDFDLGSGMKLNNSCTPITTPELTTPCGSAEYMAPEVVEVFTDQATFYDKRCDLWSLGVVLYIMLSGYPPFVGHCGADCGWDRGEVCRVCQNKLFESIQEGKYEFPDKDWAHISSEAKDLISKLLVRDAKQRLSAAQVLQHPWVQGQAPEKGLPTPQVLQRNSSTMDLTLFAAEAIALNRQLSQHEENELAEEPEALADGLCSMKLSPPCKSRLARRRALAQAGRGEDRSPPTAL

## O=C(NCCNC(=O)c1cc(Nc2cc(C3CC3)[nH]n2)nc(N2CCN(Cc3ccc(S(=O)(=O)F)cc3)CC2)n1)OC1CC/C=C/CCC1 (stereo not drawn)
UniProt Q16513; cell material: Jurkat lysate
  pIC50: < 4.52
UniProt Q16513; cell material: Lysate mix
  pIC50: < 4.52
ABL2; cell material: Jurkat cells
  pIC50: 5
ABL2; cell material: Jurkat lysate
  pIC50: < 4.52
ABL2; cell material: Lysate mix
  pIC50: < 4.52
UniProt Q15418; cell material: Jurkat cells
  pIC50: 5.78
UniProt Q15418; cell material: Jurkat lysate
  pIC50: < 4.52
LYN; cell material: Jurkat lysate
  pIC50: < 4.52
LYN; cell material: Lysate mix
  pIC50: < 4.52
UniProt Q9Y2I7; cell material: Jurkat cells
  pIC50: < 4.52
UniProt Q9Y2I7; cell material: Jurkat lysate
  pIC50: < 4.52
UniProt Q9Y2I7; cell material: Lysate mix
  pIC50: < 4.52
UniProt P45983; cell material: Jurkat cells
  pIC50: 4.88
UniProt P45983; cell material: Jurkat lysate
  pIC50: < 4.52
UniProt P45983; cell material: Lysate mix
  pIC50: < 4.52
UniProt P07947; cell material: Jurkat cells
  pIC50: 6.18
UniProt P07947; cell material: Jurkat lysate
  pIC50: 4.62
UniProt P07947; cell material: Lysate mix
  pIC50: 5.24
DAPK3; cell material: Jurkat cells
  pIC50: < 4.52
DAPK3; cell material: Lysate mix
  pIC50: < 4.52
MYLK
  pIC50: < 4.52
MAP3K4; cell material: Jurkat cells
  pIC50: 5.96
MAP3K4; cell material: Jurkat lysate
  pIC50: < 4.52
MAP3K4; cell material: Lysate mix
  pIC50: < 4.52
UniProt P51812; cell material: Jurkat cells
  pIC50: 5.86
UniProt P51812; cell material: Jurkat lysate
  pIC50: < 4.52
UniProt P51812; cell material: Lysate mix
  pIC50: < 4.52
PRKD3; cell material: Jurkat lysate
  pIC50: < 4.52
PRKD3; cell material: Lysate mix
  pIC50: < 4.52
UniProt Q9BUB5; cell material: Jurkat lysate
  pIC50: < 4.52
UniProt Q9BUB5; cell material: Lysate mix
  pIC50: < 4.52
UniProt Q9NYV4; cell material: Jurkat cells
  pIC50: 5.85
UniProt Q9NYV4; cell material: Jurkat lysate
  pIC50: < 4.52
UniProt Q9NYV4; cell material: Lysate mix
  pIC50: < 4.52
SLK; cell material: Jurkat cells
  pIC50: < 4.52
SLK; cell material: Jurkat lysate
  pIC50: < 4.52
SLK; cell material: Lysate mix
  pIC50: < 4.52
UniProt P17252; cell material: Jurkat lysate
  pIC50: < 4.52
UniProt P17252; cell material: Lysate mix
  pIC50: < 4.52
MELK; cell material: Jurkat cells
  pIC50: < 4.52
MELK; cell material: Jurkat lysate
  pIC50: < 4.52
MELK; cell material: Lysate mix
  pIC50: < 4.52
PRKCQ; cell material: Jurkat lysate
  pIC50: < 4.52
PRKCQ; cell material: Lysate mix
  pIC50: < 4.52
UniProt Q07912; cell material: Jurkat cells
  pIC50: < 4.52
UniProt Q07912; cell material: Jurkat lysate
  pIC50: < 4.52
UniProt Q07912; cell material: Lysate mix
  pIC50: < 4.52
DDR2
  pIC50: < 4.52

## Cc1cc(Nc2cc(C(=O)NCCNC(=O)OC3CC/C=C/CCC3)nc(N3CCN(Cc4ccc(S(=O)(=O)F)cc4)CC3)n2)n[nH]1 (stereo not drawn)
UniProt Q16513; cell material: Lysate mix
  pIC50: < 4.52
ABL2; cell material: Lysate mix
  pIC50: < 4.52
UniProt Q15418; cell material: Lysate mix
  pIC50: < 4.52
LYN; cell material: Lysate mix
  pIC50: < 4.52
UniProt Q9Y2I7; cell material: Lysate mix
  pIC50: < 4.52
UniProt P45983; cell material: Lysate mix
  pIC50: < 4.52
UniProt P07947; cell material: Lysate mix
  pIC50: 5.25
DAPK3; cell material: Lysate mix
  pIC50: < 4.52
MYLK
  pIC50: < 4.52
MAP3K4; cell material: Lysate mix
  pIC50: < 4.52
UniProt P51812; cell material: Lysate mix
  pIC50: < 4.52
PRKD3; cell material: Lysate mix
  pIC50: < 4.52
UniProt Q9BUB5; cell material: Lysate mix
  pIC50: < 4.52
UniProt Q9NYV4; cell material: Lysate mix
  pIC50: < 4.52
SLK; cell material: Lysate mix
  pIC50: < 4.52
UniProt P17252; cell material: Lysate mix
  pIC50: < 4.52
MELK; cell material: Lysate mix
  pIC50: < 4.52
PRKCQ; cell material: Lysate mix
  pIC50: < 4.52
UniProt Q07912; cell material: Lysate mix
  pIC50: < 4.52
DDR2
  pIC50: < 4.52

## CCNC(=O)c1cc(Nc2cc(C)[nH]n2)nc(N2CCN(Cc3ccc(S(=O)(=O)F)cc3)CC2)n1
UniProt Q16513; cell material: Lysate mix
  pIC50: < 4.52
ABL2; cell material: Lysate mix
  pIC50: 4.81
UniProt Q15418; cell material: Lysate mix
  pIC50: 5.04
LYN; cell material: Lysate mix
  pIC50: 5.98
UniProt Q9Y2I7; cell material: Lysate mix
  pIC50: < 4.52
UniProt P45983; cell material: Lysate mix
  pIC50: 4.64
UniProt P07947; cell material: Lysate mix
  pIC50: 7.16
DAPK3; cell material: Lysate mix
  pIC50: 5.14
MYLK
  pIC50: < 4.52
MAP3K4; cell material: Lysate mix
  pIC50: 4.8
UniProt P51812; cell material: Lysate mix
  pIC50: 4.87
PRKD3; cell material: Lysate mix
  pIC50: < 4.52
UniProt Q9BUB5; cell material: Lysate mix
  pIC50: < 4.52
UniProt Q9NYV4; cell material: Lysate mix
  pIC50: < 4.52
SLK; cell material: Lysate mix
  pIC50: < 4.52
UniProt P17252; cell material: Lysate mix
  pIC50: < 4.52
MELK; cell material: Lysate mix
  pIC50: < 4.52
PRKCQ; cell material: Lysate mix
  pIC50: < 4.52
UniProt Q07912; cell material: Lysate mix
  pIC50: < 4.52
DDR2
  pIC50: < 4.52

Source: the supplement of paper PMC12076712
